Holding throughout (assay): relative viability (nuclei count vs DMSO), 5 days (fraction); higher = more cells survive
Compound in assay [1]: COC1=CC=C(C=C1)CN2C=CC3=C2C=C(C=C3)C(=O)NO + CC1(C)CCC(c2ccc(Cl)cc2)=C(CN2CCN(c3ccc(C(=O)NS(=O)(=O)c4ccc(N[C@H](CCN5CCOCC5)CSc5ccccc5)c(S(=O)(=O)C(F)(F)F)c4)cc3)CC2)C1 [Navitoclax] (partner 0.5 µM)
Summed up: (§1)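 Lung cancer cell lines in 1536-well plates got either a single drug or a fixed anchor-drug dose together with five library-drug doses (not always all listed) in √10 steps, by pin tool, on the day after seeding. Nuclei were counted after 5 days, and relative viability is the treated-to-vehicle ratio of nuclei counts. Values are medians of duplicate plates.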

Compound in the assay “Veliparib + Tozasertib”: C[C@]1(c2nc3c(C(N)=O)cccc3[nH]2)CCCN1 [Veliparib] + Cc1cc(Nc2cc(N3CCN(C)CC3)nc(Sc3ccc(NC(=O)C4CC4)cc3)n2)n[nH]1 [Tozasertib] (partner 0.1 µM)
A digest of the protocol:
as §1

Compound in assay [2]: COC1=CC=C(C=C1)CN2C=CC3=C2C=C(C=C3)C(=O)NO + COc1cccc2cc(-c3nc([C@H]4CC[C@H](C(=O)O)CC4)n4ncnc(N)c34)[nH]c12 [OSI-027] (partner 0.5 µM)
Summed up:
as §1

Compound in the assay “Veliparib + Bortezomib”: C[C@]1(c2nc3c(C(N)=O)cccc3[nH]2)CCCN1 [Veliparib] + CC(C)C[C@H](NC(=O)[C@H](Cc1ccccc1)NC(=O)c1cnccn1)B(O)O [Bortezomib] (partner 0.002 µM)
Summed up: as §1

This note sets out measurements from the supplement of paper PMC10307832.

SW 1573: the relative viability in assay [1] (first compound 0.253 µM) turned out to be 0.943; in assay [1] (first compound 0.8 µM), 1.19; in assay [1] (first compound 2.53 µM), 0.961; in assay [1] (first compound 8 µM), 0.946; with Veliparib + Tozasertib (first compound 0.06325 µM), 0.175; with Veliparib + Tozasertib (first compound 0.2 µM), 0.17. Also, the relative viability in the assay with Veliparib + Tozasertib (first compound 0.6325 µM) came out at 0.204; in the assay with Veliparib + Tozasertib (first compound 2 µM) it was 0.175; in assay [2] (first compound 0.253 µM) it was 0.616; in assay [2] (first compound 0.8 µM) it was 0.785; in assay [2] (first compound 2.53 µM), 0.519; in assay [2] (first compound 8 µM), 0.396. In addition, the relative viability amounted to 0.951 in the assay with Veliparib + Bortezomib (first compound 0.02 µM); 0.982 in the assay with Veliparib + Bortezomib (first compound 0.06325 µM); 1.07 with Veliparib + Bortezomib (first compound 0.2 µM); 0.862 with Veliparib + Bortezomib (first compound 0.6325 µM); 1.06 with Veliparib + Bortezomib (first compound 2 µM).
